Results reported in patent US20250127695A1, “Use of Branched Medium-Chain Glycerol Ethers as Active Antidandruff Ingredients” (Henkel AG & Co. KGaA, priority 2022, published 2025).

Columns and labels:
[1] = system: barrier markers (transglutaminase1, filaggrin, decorin, involucrin, and loricrin); assay: gene expression of barrier markers in in vitro tests on artificial skin models; type: cell-based; details: various concentrations, FIG. 2
Excerpt: The gene expression of all investigated barrier markers (transglutaminase1, filaggrin, decorin, involucrin, and loricrin) was reduced by the treatment.

Malassezia furfur = assay: quantitative suspension test of Malassezia furfur; type: cell-based; details: incubation ≤60 min at 37° C. in a buffer solution, FIG. 1
Procedure: The efficacy against dandruff was investigated by is of a suspension test. Various formulations were incubated for a certain time (≤60 min) together with the yeast Malassezia furfur, which was present in cell counts of 10^5-10^6 CFU/mL, at 37° C. in a buffer solution.
After incubation, the cell count of the yeast was determined by is of a culture method (growth on Sabouraud Agar). The difference between this value and the respective initial value is a measure of the microbicidal efficacy of the respective anti-dandruff compound.
One of the causes of dandruff formation is the excessive growth of various microorganisms on the scalp. Yeasts of the genus Malassezia play a particularly important role here. The growth-inhibiting effect of various anti-dandruff compounds in this experiment therefore indicates anti-dandruff efficacy (FIG. 1).

Row | SMILES | release of interleukin 8 (inflammatory marker) (interleukin 8) | gene expression of barrier markers (transglutaminase1, filaggrin, decorin, involucrin, loricrin) [1] | microbicidal efficacy against Malassezia (cell count of the yeast after incubation vs initial value) (Malassezia furfur)
1 | Cc1cc(CC(C)CC(C)(C)C)n(O)c(=O)c1.NCCO (stereo not shown) [Octopirox, Piroctone Olamine] | does not negatively influence the release of inflammatory markers | reduced | –
2 | CCCCCCC(C)OCC(O)CO (stereo not shown) [methylheptyl glycerin] | – | did not lead to a significant decrease in gene expression | killing effect on the Malassezia fungus
